Experimental data reported in US7575640B2, “Method for producing sugar and sugar-containing products from sugar-containing plant raw materials” (Zuckerforschung Tulln Gesellschaft m.b.H., priority 2003, dated 2009).
In brackets after ≈: the same amount, converted by molar mass. Counter-ions that a name gives are not always drawn. Like-named read-outs stand apart in the source and are kept apart here.

How the values were obtained:
thermophilic bacteria [1] = test: determination of MIC by stepwise addition until stabilization of the pH, 65° C.; type: cell-based, thermophilic bacteria (mixed culture)
Experimental: To illustrate the antimicrobial activity within the scope of sugar production, examples are carried out with […] compounds by way of example. […] Upon the growth of thermophilic bacteria, the pH drops progressively. This indicates a microorganism-caused acid formation. […] The fatty acid compounds used in this Example are myristic acid and lauric acid, and their potassium salts, respectively. In this case, the acids were used both individually and in a 1:1 mixture, the salts were exclusively used in a 1:1 mixture.

[2] = test system: thermophilic microorganisms; test: germ-inhibiting activity (acid formation) under sugar production conditions, general statements; type: cell-based
Experimental: If at 35-45° C., i.e. at those temperatures, at which it is usually worked in microbiology, a culture medium is inoculated with non-sterile crude juice from a sugar beet extraction, in most cases it is difficult to stop, by the addition of fatty acids, an acid formation recognizable by a drop in the pH (particularly in mixed cultures in which insensitive microorganism can prevail). On the other hand, the acid formation at 55° C. and 65° C. is blocked by fatty acids, depending on the chain lengths, at concentrations of from 4 to 40 mg/l over a period of time of from 1 to 10 hours. While a maximum of C11-C12 is indicated for the effects observed at normal temperature (Ullmann 1975), for thermophilic microorganisms at the higher temperature the effective maximum lies at C14 (myristic acid)
(§1) If a sugar-containing substrate, e.g. a sugar-containing liquid culture medium, as it is common in microbiology, is either non-sterilized or incubated after inoculation with a bacterial strain, an acid formation will occur which is the easiest to recognize by a drop in the pH. The same phenomenon will occur when incubating normal sugar-containing plant juices, e.g. beet juice. In an industrial process, e.g. in the recovery of sugar juice from sugar beets, a drop in the pH by degradation of sugar means a loss of sugar and a need for an alkalizing agent. Moreover, a drop in the pH with an increase in the germ content in the substrate often is associated with an unpleasant gas and nitrite formation. This arrangement also forms an efficient system for determining the germ-inhibiting activity of substances within the scope of the sugar production process.
If during such an acid formation caused by thermophilic microorganisms at higher temperatures, for instance a solution of fatty acid compounds according to the invention is added, the acid formation and the drop in the pH associated therewith will stop starting from a certain concentration of 10 ppm. Thus, the disadvantages associated with the acid formation can be avoided by the addition of myristic acid, e.g., to a sugar-containing substrate. […]

thermophilic bacteria [3] = test: pH drop (acid formation) in liquid culture medium inoculated with crude juice from sugar beet extraction, 65° C.; type: cell-based, thermophilic bacteria (mixed culture); conditions: for behavior in such an example (effect on pH drop): as Example 2, compared with palmitic acid (basic effect lasting only a very short period); for concentration at which the pH drop is stopped / effect reached: additions of 10 mg/l
Experimental: as §1, with “formation.” for “formation. This arrangement also forms an efficient system for determining the germ-inhibiting activity of substances within the scope of the sugar production process.”
A liquid culture medium, as commonly used in microbiology and consisting of 10 g of Bacto-peptone, 5 g of meat extract, 5 g of yeast extract, 1 g of glucose, 1 g of K2HPO4, 0.1 g of MgSO4*7H2O and 0.01 g of FeSO4*7H2O per liter of distilled water, is sterilized in conventional manner for 20 min at 120° C. and inoculated, in a vessel kept at a temperature of 65° C., with 20 ml of crude juice from a large-scale sugar beet extraction, wherein the pH is registered on a recorder. Upon the growth of thermophilic bacteria, the pH drops progressively. This indicates a microorganism-caused acid formation.
A mixed culture according to Example 1 is prepared.

[4] = dissolved in ethanol, 10 mg/l steps, maximum 150 mg/l, 65° C., read-out: Min. Inhibitory Conc. (MIC)
[5] = Time 4.50 h, 3×10 mg/l added between pH 6.74 and 6.49, 65° C.
[6] = Time 4.75 h, total 30 mg/l, 65° C.
[7] = Time 5 h, total 30 mg/l, 65° C.
[8] = Time 6 h, total 30 mg/l, 65° C.
[9] = Time 7 h, total 30 mg/l, 65° C.
[10] = Time 8 h, total 30 mg/l, 65° C.
[11] = Time 9 h, total 30 mg/l, 65° C.
[12] = Time 10 h, total 30 mg/l, 65° C.
[13] = Time 6 h, 10 mg/l as potassium salt added at pH 6.46 (5 h), 65° C.
[14] = Time 7 h, 10 mg/l as potassium salt added at pH 6.46 (5 h), 65° C.
[15] = Time 8 h, 10 mg/l as potassium salt added at pH 6.46 (5 h), 65° C.
[16] = Time 9 h, 10 mg/l as potassium salt added at pH 6.46 (5 h), 65° C.
[17] = Time 11 h, 10 mg/l as potassium salt added at pH 6.46 (5 h), 65° C.
[18] = Time 13 h, 10 mg/l as potassium salt added at pH 6.46 (5 h), 65° C.
[19] = Time 15 h, 10 mg/l as potassium salt added at pH 6.46 (5 h), 65° C.
[20] = Time 17 h, 10 mg/l as potassium salt added at pH 6.46 (5 h), 65° C.
[21] = Time 6.00 h, 10 mg/l added at pH 6.52 (5.10 h), 65° C.
[22] = Time 6.50 h, 10 mg/l added at pH 6.52 (5.10 h), 65° C.
[23] = Time 7 h, 10 mg/l added at pH 6.52 (5.10 h), 65° C.
[24] = Time 8 h, 10 mg/l at pH 6.52 and 4×10 mg/l between pH 6.49 and 6.36, 65° C.
[25] = Time 9 h, total 50 mg/l, 65° C.

CCCCCCCCCCCCCC(=O)OCC [Ethyl-Myristate, reference compound] was tested, and the MIC (thermophilic bacteria [1]; [4]) was over 150 µg/mL.

CCCCCCCCCCCCCCO [Myristyl Alcohol, 1-tetradecanol] was tested, and the MIC (thermophilic bacteria [1]; [4]) was 10 µg/mL (≈ 46.6 µM) and the effective concentration [2] was at most 10 ppm.

CCCCCCCCCCCCCC(=O)OCCC [Propyl-Myristate, reference compound] showed an MIC (thermophilic bacteria [1]; [4]) of over 150 µg/mL.

CCO [alcohol] was tested, and the “amount that impairs such a culture” value (thermophilic bacteria [3]; mixed culture, 65° C.) was 40-60 ml alcohol per liter culture liquid.

CCCCCCCCCCCCCCCCCCCCCC(=O)O [behenic acid, reference compound] was tested, and the “behavior in such an example (effect on pH drop)” value (shortened to “behavior in such an example”) (thermophilic bacteria [3]) was “does not exhibit any effect”.

With CCCCCCCCCCCC(=O)O [lauric acid] the MIC (thermophilic bacteria [1]; dissolved in ethanol, steps of 2 mg/l, read-out: Min. Inhibitory Conc. (MIC)) was 18 µg/mL (≈ 89.9 µM), the MIC (thermophilic bacteria [1]; text summary of Example 9, read-out: MIC (concentration successfully used)) was 18000 µg/mL (≈ 89900 µM) and the “effect on pH drop” value (thermophilic bacteria [3]; 20 mg/l (two additions), mixed culture, 65° C.) was “does not have any effect”. For the same compound, the pH (thermophilic bacteria [3]; [5]) was 6.49, the ΔpH/h (thermophilic bacteria [3]; [5]) was 1.00 and the pH (thermophilic bacteria [3]; [6]) was 6.49. The ΔpH/h (thermophilic bacteria [3]; [6]) was 0.00, the pH (thermophilic bacteria [3]; [7]) was 6.49 and the ΔpH/h (thermophilic bacteria [3]; [7]) was 0.00. The pH (thermophilic bacteria [3]; [8]) was 6.50, the ΔpH/h (thermophilic bacteria [3]; [8]) was −0.01 and the pH (thermophilic bacteria [3]; [9]) was 6.51. For the same compound, the ΔpH/h (thermophilic bacteria [3]; [9]) was −0.01, the pH (thermophilic bacteria [3]; [10]) was 6.52 and the ΔpH/h (thermophilic bacteria [3]; [10]) was −0.01. For the same compound, the pH (thermophilic bacteria [3]; [11]) was 6.52, the ΔpH/h (thermophilic bacteria [3]; [11]) was 0.00 and the pH (thermophilic bacteria [3]; [12]) was 6.53. For the same compound, the ΔpH/h (thermophilic bacteria [3]; [12]) was −0.01 and the “concentration at which the pH drop is stopped / effect reached” value (thermophilic bacteria [3]; mixed culture, 65° C.) was 30 mg/l.

For CCCCCCCCCCCCCC(=O)OC [methyl myristate], the inhibitory concentration [2] was “approximately 100 mg/ml”.

CCCCCCCCCCCCCC(=O)O [myristic acid as potassium salt, myristic acid] was tested, and the “duration of effectiveness (pH drop stopped)” value (thermophilic bacteria [3]; 10 mg/l, mixed culture, 65° C.) was “at least 12 h”, the “effect on pH drop” value (thermophilic bacteria [3]; 10 mg/l, mixed culture, 65° C.) was “suddenly and lastingly be stopped” and the pH (thermophilic bacteria [3]; [13]) was 6.46. The ΔpH/h (thermophilic bacteria [3]; [13]) was 0.00, the pH (thermophilic bacteria [3]; [14]) was 6.46 and the ΔpH/h (thermophilic bacteria [3]; [14]) was 0.00. For the same compound, the pH (thermophilic bacteria [3]; [15]) was 6.47, the ΔpH/h (thermophilic bacteria [3]; [15]) was −0.01 and the pH (thermophilic bacteria [3]; [16]) was 6.46. For the same compound, the ΔpH/h (thermophilic bacteria [3]; [16]) was 0.01, the pH (thermophilic bacteria [3]; [17]) was 6.46 and the ΔpH/h (thermophilic bacteria [3]; [17]) was 0.00. For the same compound, the pH (thermophilic bacteria [3]; [18]) was 6.46, the ΔpH/h (thermophilic bacteria [3]; [18]) was 0.00 and the pH (thermophilic bacteria [3]; [19]) was 6.45. The ΔpH/h (thermophilic bacteria [3]; [19]) was 0.00, the pH (thermophilic bacteria [3]; [20]) was 6.45 and the ΔpH/h (thermophilic bacteria [3]; [20]) was 0.00.

CCCCCCCC/C=C\CCCCCCCC(=O)O [oleic acid] was tested, and the “behavior in such an example” value (thermophilic bacteria [3]) was “Quite similar”.

In the case of CCCCCCCCCCCCCCCC(=O)O [palmitic acid], the “duration of effectiveness (pH drop stopped)” value (thermophilic bacteria [3]; 10 mg/l, mixed culture, 65° C.) is reported as 1.5-2 h, the “effect on pH drop” value (thermophilic bacteria [3]; 10 mg/l, mixed culture, 65° C.) is reported as “immediately completely stopped” and the pH (thermophilic bacteria [3]; [21]) is reported as 6.53. The ΔpH/h (thermophilic bacteria [3]; [21]) was −0.01, the pH (thermophilic bacteria [3]; [22]) was 6.53 and the ΔpH/h (thermophilic bacteria [3]; [22]) was 0.00. The pH (thermophilic bacteria [3]; [23]) was 6.49, the ΔpH/h (thermophilic bacteria [3]; [23]) was 0.08 and the pH (thermophilic bacteria [3]; [24]) was 6.36. The ΔpH/h (thermophilic bacteria [3]; [24]) was 0.13, the pH (thermophilic bacteria [3]; [25]) was 6.29 and the ΔpH/h (thermophilic bacteria [3]; [25]) was 0.07. For the same compound, the pH drop (thermophilic bacteria [3]; renewed addition up to total 50 mg/l, retarded from 0.13) was 0.07 pH units per hour.

For C/C=C/C=C/C(=O)O [sorbic acid, reference compound], the “concentration at which the pH drop is stopped / effect reached” value (thermophilic bacteria [3]; mixed culture, 65° C.) was over 150 mg/l.

For CCCCCCCCCCCCCCCCCC(=O)O [stearic acid], the “behavior in such an example” value (thermophilic bacteria [3]) was “Quite similar”.

CCCCCCCCCCCCCCCCCCO [stearyl alcohol] was tested, and the effective concentration [2] was “markedly higher concentrations have to be employed”.

For CCCCCCCCCCC(=O)O [undecanoic acid], the “concentration at which the pH drop is stopped / effect reached” value (thermophilic bacteria [3]; mixed culture, 65° C.) was 40 mg/l.
